Earlier results as cited in patent US20210106004A1, “THERMOPLASTIC MATERIALS HAVING BENEFICIAL PROPERTIES AND PROCESSES FOR PROVIDING THE SAME” (QuadSil, Inc., priority 2016, published 2021).

Conditions: background statement

Which “temperature at which thermal decomposition begins” value does the source give for CCCCCCCCCCCCCCCCCC[N+](C)(C)CCC[Si](OC)(OC)OC.[Cl-] [3-(trimethoxysilyl) propyldimethyloctadecyl ammonium chloride] here?
The value was 125 °C.
